Data reported in doi:10.1101/2024.12.25.630315 (bioRxiv, 2024).

Assays:
Nectin-4 [1] = target: T1, Nectin-4 (Homo sapiens, UniProt Q96NY8); assay: In vivo blocking of [^68Ga]AJ647 uptake by non-radioactive AJ647, HT1376 xenografts; set-up: species or system mouse; conditions: 1 mg/kg non-radioactive AJ647; PET
T1 construct: host or cells: HT1376, SCaBER, T24, RT112, UC9, UC14 urothelial carcinoma cells; HT1376 xenografts in NSG mice
T1 sequence (Q96NY8 32-510): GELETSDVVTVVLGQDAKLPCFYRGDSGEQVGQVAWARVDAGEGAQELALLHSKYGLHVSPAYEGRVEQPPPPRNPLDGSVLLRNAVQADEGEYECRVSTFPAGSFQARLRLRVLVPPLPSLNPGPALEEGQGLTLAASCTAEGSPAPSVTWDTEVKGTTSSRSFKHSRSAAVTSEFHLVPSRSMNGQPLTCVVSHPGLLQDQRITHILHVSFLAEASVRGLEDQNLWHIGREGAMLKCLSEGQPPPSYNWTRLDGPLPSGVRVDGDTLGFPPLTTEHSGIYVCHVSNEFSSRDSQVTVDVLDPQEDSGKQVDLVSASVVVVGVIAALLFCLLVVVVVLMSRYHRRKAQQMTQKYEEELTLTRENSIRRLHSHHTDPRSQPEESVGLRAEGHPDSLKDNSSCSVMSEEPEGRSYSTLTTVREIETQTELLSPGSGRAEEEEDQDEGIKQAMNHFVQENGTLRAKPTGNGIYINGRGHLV
Description: Dynamic PET-MR imaging was performed for up to 90 minutes post-injection. […] By 60 minutes, the tumor contrast had further improved due to background radiotracer clearance, as evidenced by the percent injected activity per cubic centimeter (%IA/cc) values derived from [^68Ga]AJ647 PET (Fig. 4B). […] In contrast, minimal uptake was detected in non–Nectin-4-expressing tissues such as muscle.
Mice with tumor volume of ~100–150 mm^3 were injected with ~[…] (7.4 MBq) of [^68Ga]AJ647 in […] of 5% ethanol in saline intravenously and anesthetized under 2.5% isoflurane. PET-CT images were acquired at 60 minutes after radiotracer injection at 5 min/bed in an ARGUS small-animal PET/CT scanner (Sedecal, Madrid, Spain) as described (n=3 unless otherwise noted). PET-MR images were acquired on a simultaneous 7T Bruker PET-MR scanner. Dynamic imaging was conducted to evaluate pharmacokinetics of [^68Ga]AJ647. […] The SUV values were calculated by finding percent of injected activity (%IA) based on a calibration factor obtained from a known radioactive quantity, then normalizing by mice weight. […] For change in accessible Nectin-4 levels following EV treatment, ΔSUV was calculated by subtracting baseline (pre-treatment) uptake from post-therapy uptake of [^68Ga]AJ647. Target engagement was quantified by normalizing this change by initial SUV in same subject controls. […]

Nectin-4 [2] = target: T1, Nectin-4; assay: In vitro blocking of [^68Ga]AJ647 uptake by non-radioactive AJ647; type: cell-based; conditions: pre-incubation with 2 μM non-radioactive AJ647
Description: Figure 3. In vitro specificity of [^68Ga]AJ647 for Nectin-4 in bladder cancer cell lines A) [^68Ga]AJ647 binding (percent incubated activity, %IA) to various bladder cancer cell lines. Cells were incubated with ~37 kBq (~1 μCi) [^68Ga]AJ647 at 4°C for 1 hour. […] B) Flow cytometry analysis of Nectin-4 receptor expression across different bladder cancer cell lines, providing insight into the variability in receptor density among the cell lines. […] Data in figure A and C are represented as mean ± SD. Pearson correlation used in C.

CSCC[C@@H]1NC(=O)[C@@H]2CSCCC(=O)N3CN(CN(C3)C(=O)CCSC[C@H](NC(=O)CCOCCOCCOCCOCCOCCOCCOCCOCCOCCOCCOCCOCCNC(=O)CN3CCN(CC(=O)O)CCN(CC(=O)O)CC3)C(=O)N3CCC[C@H]3C(=O)N[C@@H](Cc3cccc4ccccc34)C(=O)N[C@@H](CC(=O)O)C(=O)N2)C(=O)CCSC[C@@H](C(N)=O)NC(=O)[C@H](Cc2c[nH]c3ccccc23)NC(=O)[C@@H]2C[C@@H](O)CN2C(=O)[C@@H]2CCCN2C(=O)[C@H]([C@@H](C)O)NC(=O)[C@H](CO)NC(=O)[C@H](Cc2c[nH]c3ccccc23)NC(=O)[C@@H](CC(=O)O)NC(=O)[C@H](CCCCNC(=N)N)NC1=O [AJ647]
effect on [^68Ga]AJ647 tracer uptake in HT1376 xenografts (Nectin-4 [1]): reduction in tracer uptake | effect of blocking dose on [^68Ga]AJ647 uptake in bladder cancer cell lines (Nectin-4 [2]): significantly reduced radiotracer uptake
